These are literature values, as cited in patent US20130023590A1, “AQUEOUS COMPOSITIONS COMPRISING RESVERATROL AND METHODS FOR MAKING THEM” (priority 2011, published 2013).

Like-named read-outs stand apart in the source and are kept apart here.

The conditions of series [1]: for solubility in water: with heating.
In the next series the test system is yeast. The conditions noted are these: in the absence of caloric restriction.
The conditions of series [2]: oral, humans.

Consider `Oc1ccc(C=Cc2cc(O)cc(O)c2)cc1` [resveratrol, 3,4′,5-trihydroxystilbene], for which the “solubility in organic solvents” value in series [1] (ethanol, dimethyl sulfoxide or dimethyl formamide) is “approximately 65 mg/ml”. For the same molecule, the solubility in water in series [1] (Sigma-Aldrich Product Information Sheet) is on record as 3 mg/100 ml; in series [1] (same value restated in ppm) it was 30 ppm. Moreover, the “extension of replicative lifespan of yeast” value in the series with yeast is 70%. Moreover, in series [2], the bioavailability result is “very low”.
